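Results reflect a 48-hour exposure of cells in 96-well plates to compound at five concentrations. At the GI50, growth is halved. TGI denotes the concentration required for complete inhibition of growth.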
Legend:
Assay in all cases: NCI anticancer screen, dose series, 48 h
NCI-H460 lung = system: NCI-H460 lung
HT29 colon = system: HT29 colon
HOP-92 NSCLC = system: HOP-92 NSCLC
SK-OV-3 ovarian = system: SK-OV-3 ovarian
TK-10 renal = system: TK-10 renal
A549 NSCLC = system: A549 NSCLC
U251 CNS = system: U251 CNS
HCC-2998 colon = system: HCC-2998 colon
SR leukemia = system: SR leukemia
DU-145 prostate = system: DU-145 prostate

Compound	TGI (NCI-H460 lung)	TGI (HT29 colon)	TGI (HOP-92 NSCLC)	TGI (SK-OV-3 ovarian)	TGI (TK-10 renal)	TGI (A549 NSCLC)	TGI (U251 CNS)	TGI (HCC-2998 colon)	TGI (SR leukemia)	GI50 (DU-145 prostate)	TGI (DU-145 prostate)	GI50 (NCI-H460 lung)	GI50 (HT29 colon)	GI50 (HOP-92 NSCLC)	GI50 (SK-OV-3 ovarian)	GI50 (TK-10 renal)	GI50 (A549 NSCLC)	GI50 (HCC-2998 colon)	GI50 (U251 CNS)
COCC(=O)CP(=O)(OC)OC	> 100 µM	> 100 µM	> 100 µM	> 100 µM	> 100 µM	> 100 µM	> 100 µM												
CCOC(=O)C1(Cc2ccccc2)CCCCCN1 (stereo not given)	> 100 µM	> 100 µM	> 100 µM	> 100 µM	> 100 µM	> 100 µM	> 100 µM	> 100 µM											
CCCCCC(=O)c1ccc2[nH]c3c(C)cc([N+](=O)[O-])c(C)c3c2c1	> 100 µM	> 100 µM			> 100 µM	> 100 µM		> 100 µM	> 100 µM										
Cn1ncc2c(N)nc(N3CCCCC3)nc21	> 100 µM	68.6 µM	> 100 µM	> 100 µM	77.8 µM	> 100 µM	> 100 µM	58.6 µM		19.2 µM	74.7 µM	42.5 µM	22.5 µM	44.3 µM	22.5 µM	22.9 µM	66.1 µM	18.6 µM	30.7 µM
COc1cccc(C(=O)N2CCc3ccccc32)c1OC	> 100 µM	> 100 µM	> 100 µM	> 100 µM	> 100 µM	> 100 µM	> 100 µM	> 100 µM	> 100 µM										
Cc1c(C(=O)NCCO)[n+](=O)c2cc(Cl)ccc2n1[O-]	> 100 µM	> 100 µM	> 100 µM	> 100 µM	> 100 µM	> 100 µM	> 100 µM	> 100 µM	> 100 µM										
CCOc1ccc(/C=C(\Cl)c2ccc(OC)c(OC)c2)cc1		40.9 µM	> 100 µM	> 100 µM		> 100 µM	> 100 µM	> 100 µM	91.4 µM										
NNc1nc2ccccc2c(=O)n1NC(=O)C(=O)Nc1cccc(C(F)(F)F)c1	> 100 µM	> 100 µM	> 100 µM	> 100 µM	> 100 µM	> 100 µM	> 100 µM	> 100 µM											
CN(C)CCCN1c2nc3ccccc3cc2Sc2cc3ccccc3nc21	3.13 µM	5.1 µM	1.42 µM	3.01 µM	3.1 µM		3.08 µM	3.26 µM		1.65 µM	3.01 µM	1.6 µM	1.18 µM	0.332 µM	1.59 µM	1.65 µM		1.65 µM	1.6 µM
COC1OC(CO)C(O)C(O)C1Br (stereo not given)	> 100 µM	> 100 µM	> 100 µM		> 100 µM	> 100 µM	> 100 µM	> 100 µM	> 100 µM										
CN(CN1C(=O)C2Cc3ccccc3CN2C1=O)c1ccccn1 (stereo not given)	> 100 µM				> 100 µM	> 100 µM	> 100 µM	> 100 µM	> 100 µM										
OCC1OC(n2ccc3c(NO)ncnc32)C(O)C1O (stereo not given)	4.45 µM	0.94 µM	0.608 µM	5.38 µM	1.16 µM	3.58 µM	> 20.2 µM	1 µM		0.111 µM	0.702 µM	0.044 µM	0.13 µM	0.154 µM	0.12 µM	0.152 µM	0.087 µM	0.25 µM	0.168 µM
CC(=O)OC1CC2C(C)(C)C(=O)C=C[C@]2(C)C2CCC3(C)C(c4ccoc4)C(=O)[C@H]4O[C@]43[C@]12C (stereo not given in full)	36.8 µM		34.4 µM	> 100 µM	> 100 µM		32.9 µM	32.2 µM											
C1CCN(c2nsc(N3CCCCC3)n2)CC1	> 100 µM	> 100 µM	> 100 µM	> 100 µM	> 100 µM	> 100 µM	> 100 µM	> 100 µM	> 100 µM										
CCOC(=O)c1[nH]c(-c2ccc(Cl)cc2)cc1-c1cccnc1	> 100 µM	> 100 µM	84.7 µM	> 100 µM	> 100 µM	> 100 µM	> 100 µM	> 100 µM		1.88 µM	> 100 µM	0.449 µM	0.35 µM	0.572 µM	1.05 µM	0.972 µM	0.812 µM	9.46 µM	0.622 µM
CN(C)C(N)=NC#N	> 100 µM	> 100 µM	> 100 µM	> 100 µM	> 100 µM	> 100 µM	> 100 µM	> 100 µM											
C(CCC[Te][Te]CCCCCCOC1CCCCO1)CCOC1CCCCO1 (stereo not given)	30 µM	25.6 µM	30.5 µM	80.7 µM	95.1 µM	41.5 µM	24.5 µM	27.9 µM	38.2 µM										
C=C=C(CC)C(C(=O)OC)N(CC)CC (stereo not given)	> 100 µM	> 100 µM	> 100 µM	> 100 µM	> 100 µM	> 100 µM	> 100 µM		> 100 µM										
N=c1nnc(=O)c2c(s1)-n1ncc(C(=O)O)c1NN2		> 100 µM	> 100 µM	> 100 µM	> 100 µM	> 100 µM	> 100 µM		> 100 µM										
Cc1ccc(S(=O)(=O)NC(=O)NC23CC4CC(CC(F)(C4)C2)C3)cc1	> 100 µM	> 100 µM	> 100 µM	> 100 µM	> 100 µM	> 100 µM	> 100 µM	> 100 µM											
O=C(O)/C(=C/c1c(O)ccc2ccccc12)c1csc(-c2nc(/C(=C\c3c(O)ccc4ccccc34)C(=O)O)cs2)n1	49.1 µM	52.2 µM	7.77 µM	26.8 µM	58 µM	55.5 µM	30.3 µM	32.4 µM											
CC(=O)O[C@H]1CC[C@@]2(C)C(=CC[C@H]3C4=CC=C(C(C)=O)[C@@]4(C)CCC32)C1 (stereo not given in full)	> 100 µM	> 100 µM	> 100 µM	> 100 µM	> 100 µM	> 100 µM	> 100 µM	> 100 µM	81 µM										

From PubChem BioAssay (NCI)
